Experimental data published in patent US6124337A, “Methods and formulations for modulating the human sexual response” (priority 1999, dated 2000).
Structures can show the parent of a compound that is named as a salt.

Key:
impotentia erectionis = settings: buccal, 100 I.U. three times a day for 14 days; cited from earlier work
male erectile ability = assay: Single blind trial of rapidly dissolving oral formulation on male erectile ability; assay type: in vivo, human; settings: 40 mg dose
Experimental: In order to test the ability of a rapidly dissolving oral formulation of phentolamine mesylate on erectile ability, a single blind trial was conducted.
All patients had impotence of organic etiology. Patients were selected for inclusion in the trial based medical history and physical examination with a duration of impotence of less than 3-4 years. Each patient was given two tablets: a rapidly dissolving tablet containing 40 mg of phentolamine mesylate (see Table 1), and a placebo tablet lacking phentolamine mesylate.
Patients were asked to take one tablet 20 to 30 minutes before attempting coitus. One or more days after using the first tablet, the patients repeated the process with the second tablet.
Patients were advised not to consume alcohol prior to using the tablets and were told not to expect erection without sexual stimulation. […] Patients were also asked to report side effects.

For `CC[C@H](C)[C@@H]1NC(=O)[C@H](Cc2ccc(O)cc2)NC(=O)[C@@H](N)CSSC[C@@H](C(=O)N2CCC[C@H]2C(=O)N[C@@H](CC(C)C)C(=O)NCC(N)=O)NC(=O)[C@H](CC(N)=O)NC(=O)[C@H](CCC(N)=O)NC1=O` [oxytocin], the “Patients with improvement of impotentia erectionis” value (impotentia erectionis) is listed as 12 of the 16.
In the case of `Cc1ccc(N(CC2=NCCN2)c2cccc(O)c2)cc1` [phentolamine mesylate], the “Success in improving erectile ability” value (male erectile ability) was “significant success”.
